# In ChEMBL document CHEMBL3885881, “DrugMatrix”:
# Organism: Rattus norvegicus
# Experiment: DrugMatrix - Regimen: Daily Repeat
# Format: toxicity, organism-based, Sprague-Dawley
# Design: regimen Daily Repeat, gender Male, age 6-8 weeks
# Conditions: in vivo, iv, vehicle 100 % SALINE; for ABSOLUTE BASOPHIL / ABSOLUTE EOSINOPHIL / ABSOLUTE LYMPHOCYTE / ABSOLUTE MONOCYTE / ABSOLUTE SEGMENTED NEUTROPHIL / BASOPHIL / EOSINOPHIL / ERYTHROCYTE COUNT / HEMATOCRIT / HEMOGLOBIN / LEUKOCYTE COUNT / LYMPHOCYTE / MEAN CORPUSCULAR HEMOGLOBIN / MEAN CORPUSCULAR HEMOGLOBIN CONCENTRATION / MEAN CORPUSCULAR VOLUME / MONOCYTE / NEUTROPHIL / NUCLEATED RED BLOOD CELLS: tissue Blood; for ALANINE AMINOTRANSFERASE / ALKALINE PHOSPHATASE / ASPARTATE AMINOTRANSFERASE / BLOOD UREA NITROGEN / CARBON DIOXIDE / CHOLESTEROL / CREATINE PHOSPHOKINASE / CREATININE / GLUCOSE / LACTATE DEHYDROGENASE / LIPASE / SODIUM / TOTAL BILIRUBIN / TOTAL PROTEIN / URIC ACID: tissue Plasma
# [1] = 3 mg/kg, 120 h, dose level High, time 5 day
# [2] = […], 72 h, dose 0.65 mg/Kg, dose level Low, time 3 day
# [3] = […], 120 h, dose 0.65 mg/Kg, dose level Low, time 5 day
compound,measurement,setting,value
COc1cccc2c1C(=O)c1c(O)c3c(c(O)c1C2=O)C[C@@](O)(C(=O)CO)C[C@@H]3O[C@H]1C[C@H](N)[C@H](O)[C@H](C)O1 [DOXORUBICIN],ABSOLUTE BASOPHIL,[1],0 CELLS/uL
same,ABSOLUTE EOSINOPHIL,[1],17.33 CELLS/uL
same,ABSOLUTE LYMPHOCYTE,[1],1693 CELLS/uL
same,ABSOLUTE MONOCYTE,[1],0 CELLS/uL
same,ABSOLUTE SEGMENTED NEUTROPHIL,[1],589.67 CELLS/uL
same,BASOPHIL,[1],0%
same,EOSINOPHIL,[1],0.67%
same,ERYTHROCYTE COUNT,[1],5.12 x10E6/uL
same,HEMATOCRIT,[1],32.6%
same,HEMOGLOBIN,[1],12.83 G/DL
same,LEUKOCYTE COUNT,[1],2.3 x10E3/uL
same,LYMPHOCYTE,[1],74%
same,MEAN CORPUSCULAR HEMOGLOBIN,[1],25.07 pg
same,MEAN CORPUSCULAR HEMOGLOBIN CONCENTRATION,[1],39.4 G/DL
same,MEAN CORPUSCULAR VOLUME,[1],63.73 fL
same,MONOCYTE,[1],0%
same,NEUTROPHIL,[1],25.33%
same,NUCLEATED RED BLOOD CELLS,[1],0 /100WBC
same,ALANINE AMINOTRANSFERASE,[1],34 u/L
same,ALKALINE PHOSPHATASE,[1],189.67 u/L
same,ASPARTATE AMINOTRANSFERASE,[1],86.33 u/L
same,BLOOD UREA NITROGEN,[1],12.33 mg/dL
same,CARBON DIOXIDE,[1],25.67 mmol/L
same,CHOLESTEROL,[1],95.67 mg/dL
same,CREATINE PHOSPHOKINASE,[1],299.33 u/L
same,CREATININE,[1],0.1 mg/dL
same,GLUCOSE,[1],147.67 mg/dL
same,LACTATE DEHYDROGENASE,[1],73.33 u/L
same,LIPASE,[1],8.33 u/L
same,SODIUM,[1],144.9 MEQ/L
same,TOTAL BILIRUBIN,[1],0.1 mg/dL
same,TOTAL PROTEIN,[1],5.77 G/DL
same,URIC ACID,[1],0.4 mg/dL
same,ABSOLUTE BASOPHIL,[2],0 CELLS/uL
same,ABSOLUTE EOSINOPHIL,[2],0 CELLS/uL
same,ABSOLUTE LYMPHOCYTE,[2],6184 CELLS/uL
same,ABSOLUTE SEGMENTED NEUTROPHIL,[2],275.33 CELLS/uL
same,BASOPHIL,[2],0%
same,EOSINOPHIL,[2],0%
same,ERYTHROCYTE COUNT,[2],5.13 x10E6/uL
same,HEMATOCRIT,[2],33%
same,HEMOGLOBIN,[2],13.03 G/DL
same,LEUKOCYTE COUNT,[2],6.5 x10E3/uL
same,LYMPHOCYTE,[2],94.67%
same,MEAN CORPUSCULAR HEMOGLOBIN,[2],25.47 pg
same,MEAN CORPUSCULAR HEMOGLOBIN CONCENTRATION,[2],39.5 G/DL
same,MEAN CORPUSCULAR VOLUME,[2],64.47 fL
same,MONOCYTE,[2],0.67%
same,NEUTROPHIL,[2],4.67%
same,NUCLEATED RED BLOOD CELLS,[2],0 /100WBC
same,ALANINE AMINOTRANSFERASE,[2],48.33 u/L
same,ALKALINE PHOSPHATASE,[2],370 u/L
same,ASPARTATE AMINOTRANSFERASE,[2],79.33 u/L
same,BLOOD UREA NITROGEN,[2],12.33 mg/dL
same,CARBON DIOXIDE,[2],30.33 mmol/L
same,CHOLESTEROL,[2],68.33 mg/dL
same,CREATINE PHOSPHOKINASE,[2],280.67 u/L
same,CREATININE,[2],0.29 mg/dL
same,GLUCOSE,[2],179 mg/dL
same,LACTATE DEHYDROGENASE,[2],81.33 u/L
same,LIPASE,[2],10.33 u/L
same,SODIUM,[2],144.23 MEQ/L
same,TOTAL BILIRUBIN,[2],0.1 mg/dL
same,TOTAL PROTEIN,[2],5.93 G/DL
same,URIC ACID,[2],0.87 mg/dL
same,ABSOLUTE BASOPHIL,[3],0 CELLS/uL
same,ABSOLUTE EOSINOPHIL,[3],49.33 CELLS/uL
same,ABSOLUTE LYMPHOCYTE,[3],5081.33 CELLS/uL
same,ABSOLUTE MONOCYTE,[3],14 CELLS/uL
same,ABSOLUTE SEGMENTED NEUTROPHIL,[3],188.67 CELLS/uL
same,BASOPHIL,[3],0%
same,EOSINOPHIL,[3],1%
same,ERYTHROCYTE COUNT,[3],5.28 x10E6/uL
same,HEMATOCRIT,[3],34.1%
same,HEMOGLOBIN,[3],13.37 G/DL
same,LEUKOCYTE COUNT,[3],5.33 x10E3/uL
same,LYMPHOCYTE,[3],95%
same,MEAN CORPUSCULAR HEMOGLOBIN,[3],25.3 pg
same,MEAN CORPUSCULAR HEMOGLOBIN CONCENTRATION,[3],39.17 G/DL
same,MEAN CORPUSCULAR VOLUME,[3],64.67 fL
same,MONOCYTE,[3],0.33%
same,NEUTROPHIL,[3],3.67%
same,NUCLEATED RED BLOOD CELLS,[3],0 /100WBC
same,ALANINE AMINOTRANSFERASE,[3],34.67 u/L
same,ALKALINE PHOSPHATASE,[3],365.33 u/L
same,ASPARTATE AMINOTRANSFERASE,[3],74.67 u/L
same,BLOOD UREA NITROGEN,[3],14 mg/dL
same,CARBON DIOXIDE,[3],26 mmol/L
same,CHOLESTEROL,[3],68.67 mg/dL
same,CREATINE PHOSPHOKINASE,[3],222 u/L
same,CREATININE,[3],0.14 mg/dL
same,GLUCOSE,[3],156 mg/dL
same,LACTATE DEHYDROGENASE,[3],60 u/L
same,LIPASE,[3],9 u/L
same,SODIUM,[3],145.47 MEQ/L
same,TOTAL BILIRUBIN,[3],0.1 mg/dL
same,TOTAL PROTEIN,[3],5.63 G/DL
same,URIC ACID,[3],0.23 mg/dL
